Here are results for four molecules from patent US8298176B2, “Flow-induced delivery from a drug mass” (priority 2006, dated 2012).

The conditions of series [1]: cited from earlier work.
The conditions of series [2]: body temperature / in the presence of water; cited from earlier work.
Series [3] in a line: Dissolution of gacyclidine base pellets in a continuous flow reactor (elution with Ringer's solution containing hydrochloric acid). The format is physicochemical. Particulars: for pH of the eluted drug solution: room temperature (23±2° C.). Here is the method: A drug chamber similar to the one illustrated in FIGS. 2 and 4 was loaded with 11 pellets of gacyclidine base having a combined mass of 18 mg. This drug-loaded chamber was eluted at a flow rate of 20 μL/hr at room temperature (23±2° C.) using a MiniMed 508 syringe pump (available from Medtronics MiniMed of Northridge, Calif.). The syringe was loaded with 3 mL of Ringer's solution containing 0.05 to 3 mM hydrochloric acid. The eluted volume was collected in PTFE tubing attached to the pump drug capsule assembly, after a 3-D antibacterial filter. The pH of this solution was determined by use of a pH meter equipped with a Calomel electrode. Drug concentration was determined by HPLC.
The highest pH of the eluted drug solution (5.9) was obtained at 0.05 mM hydrochloric acid, and the lowest pH of the eluted drug solution (5.6) was obtained at 3 mM hydrochloric acid. These pH values indicate quantitative conversion of the hydrochloric acid to the drug salt and are consistent with the pH expected for solutions of the hydrochloride salt.

On to `CCN(CC)C(=O)SC[C@H](NC(=O)CC[C@H](N)C(=O)O)C(=O)NCC(=O)O` [carbamathione], for which the “water solubility (in words)” value in series [1] is listed as “sparingly soluble in water”.
As for `CC1CCCCC1(c1cccs1)N1CCCCC1` (stereo not shown) [gacyclidine], in series [1], the “water solubility (in words)” value is reported as “sparingly soluble in water”. Further, in series [2], the “stability (in words)” value is “much more stable than its acidic form in the presence of water”. The “correlation in gacyclidine concentration per hydrochloric acid concentration used for elution” value in series [3] (0.05 to 3 mM HCl in Ringer's solution, 20 μL/hr, linear fit of FIG. 26, drug by HPLC) is 0.976±0.049. For the same molecule, the “pH of the eluted drug solution” value in series [3] (eluted with Ringer's solution containing 0.05 mM hydrochloric acid, 20 μL/hr, highest pH) came to 5.9; in series [3] (eluted with Ringer's solution containing 3 mM hydrochloric acid, 20 μL/hr, lowest pH) it was 5.6. The “intercept at zero concentration of hydrochloric acid” value in series [3] (linear fit of FIG. 26, gacyclidine concentration in eluate) was 0.0014 ± 0.0061 mM.
`C[C@H]1CCCC[C@@]1(c1cccs1)N1CCCCC1.Cl` [hydrochloride salt of gacyclidine]: the “water solubility (in words)” value in series [1] is “highly water soluble”. Further, the “stability (in words)” value in series [2] is “unstable at body temperature”.
In the case of `CC1(C)O[C@@H]2C[C@H]3[C@@H]4CCC5=CC(=O)C=C[C@]5(C)[C@@]4(F)[C@@H](O)C[C@]3(C)[C@]2(C(=O)CO)O1` [triamcinolone acetonide], the “water solubility (in words)” value in series [1] was “very low water solubility”.
